Patent publication US6641851B2, “Herbal laxative preparation” (The Himalaya Drug Company, priority 2001, dated 2003)

Test system: Wistar rats
Assay: Laxative test in rats
Format: in vivo, rat
Settings: for laxative activity: 50 mg/kg b.wt, in words
Method: Animals Wistar rats (180-200 g) of either sex were used for the study. The animals were housed in standard laboratory conditions and provided with a temperature of 22±3° C., relative humidity of 50-55% and a 12-hour light/dark cycle. Drinking water and a synthetic pelleted diet (Lipton India Ltd., Mumbal) were supplied ad libitum. The Ethical Committee of the institution approved the experimental protocol. All the animals received humane care according to the criteria outlined in the “Guide for the care and use of Laboratory Animals” prepared by the National Academy of Sciences and published by The National Institute of Heath. Laxative Test in Rats Twenty-four animals of either sex were randomly divided into 4 groups of 6 rats each. Food was withdrawn 12 hrs. before the experiment. […] The animals were then housed individually in cages lined with blotting paper and observed for 24 hrs. The total number of wet fecal produced from each group was noted [Akah P A, Oli […](4):327]. The laxative property of the one of the selected extract KP-4 was further tested to determine the laxative property in relation to the dosage administered in rats. For the purpose the rats were grouped in four groups. Group I received saline and served as control. […] The animals were then housed individually in cages lined with blotting paper and observed for 24 hrs. The total number of wet fecal produced from each group was noted.

Row | Structure (SMILES) | No of Animals Responded (50 mg/Kg, compounds from KP-1B) | No. of faeces (50 mg/Kg, compounds from KP-1B) | On set of Action (50 mg/Kg, compounds from KP-1B) [min] | Percentage of Action (50 mg/Kg, compounds from KP-1B) | laxative activity (listed as C8, 50 mg/kg) | laxative activity (listed as ferulic acid, 50 mg/kg)
1 | COc1cc(/C=C/C(=O)O)ccc1O [Compound C-8, Ferulic acid] | 10/10 | 7.80 ± 0.80 | 179.00 ± 22.66 | 100 | significant laxative action | promising activity
2 | COc1cc(C(=O)O)ccc1O [Compound C-9, Vanillic acid] | Nil | – | – | Nil | – | –
